# Patent US20170112873A1, “Method and Topical Composition for the Treatment of Rosacea and Skin Erythema Using Selenium Sulfide” (priority 2015, published 2017)
# Test system: facial Rosacea
# Experiment: clinical type observations of topical application in facial Rosacea
# Format: in vivo
smiles,measurement,setting,value
S=[Se]=S [selenium sulfide],"redness, small dilated blood vessels and small red bumps characterizing the facial Rosacea",clinical type observations,observed to be decreased
same,effectiveness in facial Rosacea,fluid form selenium sulfide of 1% strength,Effective in most instances
same,"redness, flushing and inflammation associated with facial Rosacea and skin erythema","topical application, clinical type observations",effective in significantly reducing
